Reference: patent US4110327A, “2,3 Diketo-piperazinocarbonylamino alkanoic acids and derivatives” (Toyama Chemical Co., Ltd., priority 1974, dated 1978)
In brackets after ≈: the same amount, converted by molar mass.

What was measured:
Assay in all cases: MIC against standard strain, plate method
Type in all cases: cell-based
[1] = test system: Staphylococcus aureus 209p; conditions: unit assumed
Protocol: (§1) The minimum inhibitory concentrations (MIC) was determined by the plate method disclosed in "Chemotherapy" (Japan), Vol. 16, (1968), pages 98 - 99. The culture medium used was a Heart infusion agar (pH 7.4). The number of the cells per plate used in the inoculum as 10^4 (10^6 cells/ml).

[2] = test system: Pseudomonas aeruginosa I.F.O.; conditions: unit assumed
Protocol: as §1

[3] = test system: Proteus vulgaris 3027; conditions: Proteus vulgaris 3027, standard strain; unit assumed
Protocol: as §1

[4] = test system: Escherichia coli NIHJ; conditions: unit assumed
Protocol: as §1

[5] = test system: Klebsiella pneumoniae; conditions: unit assumed
Protocol: as §1

Structure (SMILES) | MIC [1] | MIC [2] | MIC [3] | MIC [4] | MIC [5]
CC(=O)NC(=O)N1CCN(C(=O)N[C@@H](C(=O)N[C@@H]2C(=O)N3[C@@H]2SC(C)(C)[C@@H]3C(=O)O)c2ccccc2)C(=O)C1 [compound 11] | < 1.57 µg/mL | 50 µg/mL (≈ 89.2 µM) | 6.25 µg/mL (≈ 11.1 µM) | < 1.57 µg/mL | 50 µg/mL (≈ 89.2 µM)
CCCCCCN1CCN(C(=O)N[C@@H](C(=O)N[C@@H]2C(=O)N3[C@@H]2SC(C)(C)[C@@H]3C(=O)O)c2ccccc2)CC1=O [compound 29] | 3.13 µg/mL (≈ 5.59 µM) | 12.5 µg/mL (≈ 22.3 µM) | 3.13 µg/mL (≈ 5.59 µM) | < 1.57 µg/mL | 3.13 µg/mL (≈ 5.59 µM)
CCN1CCN(C(=O)NC(C(=O)NC2C(=O)N3C(C(=O)O)=C(CSc4cccc[n+]4[O-])CSC23)c2ccccc2)C(=O)C1=O (single isomer, unassigned) [compound 70] | < 0.79 µg/mL | 100 µg/mL (≈ 156 µM) | < 0.79 µg/mL | 1.57 µg/mL (≈ 2.45 µM) | 1.56 µg/mL (≈ 2.43 µM)
C=CCN1CCN(C(=O)N[C@@H](C(=O)N[C@@H]2C(=O)N3[C@@H]2SC(C)(C)[C@@H]3C(=O)O)c2ccccc2)C(=O)C1=O (single isomer, unassigned) [compound 42] | 1.57 µg/mL (≈ 2.96 µM) | 12.5 µg/mL (≈ 23.6 µM) | < 1.57 µg/mL | < 1.57 µg/mL | 6.25 µg/mL (≈ 11.8 µM)
COCOC(=O)[C@@H]1N2C(=O)[C@@H](NC(=O)[C@H](NC(=O)N3CCN(C)C(=O)C3=O)c3ccccc3)[C@H]2SC1(C)C (single isomer, unassigned) [compound 50] | < 0.79 µg/mL | 6.25 µg/mL (≈ 11.4 µM) | < 0.79 µg/mL | < 0.79 µg/mL | 6.25 µg/mL (≈ 11.4 µM)
CCCCCC(=O)N1CCN(C(=O)N[C@@H](C(=O)N[C@@H]2C(=O)N3[C@@H]2SC(C)(C)[C@@H]3C(=O)O)c2ccccc2)C(=O)C1 [compound 6] | 3.13 µg/mL (≈ 5.46 µM) | 50 µg/mL (≈ 87.2 µM) | 6.25 µg/mL (≈ 10.9 µM) | 3.13 µg/mL (≈ 5.46 µM) | 6.25 µg/mL (≈ 10.9 µM)
CCCCCCCCN1CCN(C(=O)NC(C(=O)NC2C(=O)N3C2SC(C)(C)C3C(=O)OCCN2CCCCC2)c2ccccc2)C(=O)C1=O (single isomer, unassigned) [compound 54] | 0.79 µg/mL (≈ 1.11 µM) | 12.5 µg/mL (≈ 17.5 µM) | 0.79 µg/mL (≈ 1.11 µM) | 0.4 µg/mL (≈ 0.561 µM) | 0.79 µg/mL (≈ 1.11 µM)
CN1CCN(C(=O)N[C@@H](C(=O)N[C@@H]2C(=O)N3[C@@H]2SC(C)(C)[C@@H]3C(=O)O)c2ccc(O)cc2)C(=O)C1=O (single isomer, unassigned) [compound 48] | < 0.4 µg/mL | 6.25 µg/mL (≈ 12 µM) | < 0.4 µg/mL | < 0.4 µg/mL | 25 µg/mL (≈ 48.1 µM)
CN1CCN(C(=O)N[C@@H](C(=O)N[C@@H]2C(=O)N3[C@@H]2SC(C)(C)[C@@H]3C(=O)O)c2ccccc2)CC1=O [compound 17] | < 1.57 µg/mL | 12.5 µg/mL (≈ 25.5 µM) | 6.25 µg/mL (≈ 12.8 µM) | < 1.57 µg/mL | 50 µg/mL (≈ 102 µM)
CC1(C)S[C@@H]2[C@H](NC(=O)[C@H](NC(=O)N3CCN(C(=O)c4ccccc4)CC3=O)c3ccccc3)C(=O)N2[C@H]1C(=O)O [compound 7] | < 1.57 µg/mL | 200 µg/mL (≈ 345 µM) | 6.25 µg/mL (≈ 10.8 µM) | < 1.57 µg/mL | 12.5 µg/mL (≈ 21.6 µM)
CN1CCN(C(=O)NC(C(=O)NC2C(=O)N3C2SC(C)(C)C3C(=O)OCCN2CCOCC2)c2ccccc2)C(=O)C1=O (single isomer, unassigned) [compound 55] | 0.79 µg/mL (≈ 1.28 µM) | 6.25 µg/mL (≈ 10.1 µM) | 0.79 µg/mL (≈ 1.28 µM) | 0.4 µg/mL (≈ 0.649 µM) | 25 µg/mL (≈ 40.5 µM)
CN1CCN(C(=O)NC(C(=O)NC2C(=O)N3C(C(=O)O)=C(CSc4nncs4)CSC23)c2ccccc2)C(=O)C1=O (single isomer, unassigned) [compound 64] | 0.79 µg/mL (≈ 1.28 µM) | 25 µg/mL (≈ 40.5 µM) | 3.13 µg/mL (≈ 5.07 µM) | < 0.1 µg/mL | 1.57 µg/mL (≈ 2.54 µM)
C=CCN1CCN(C(=O)N[C@@H](C(=O)N[C@@H]2C(=O)N3[C@@H]2SC(C)(C)[C@@H]3C(=O)O)c2ccccc2)CC1=O [compound 25] | < 1.57 µg/mL | 25 µg/mL (≈ 48.5 µM) | 3.13 µg/mL (≈ 6.07 µM) | < 1.57 µg/mL | 50 µg/mL (≈ 97 µM)
